From US20140163026A1, “8-ETHYL-6-(ARYL)PYRIDO[2,3-D]PYRIMIDIN-7(8H)-ONES FOR THE TREATMENT OF NERVOUS SYSTEM DISORDERS AND CANCER” (Afraxis Holdings, Inc., priority 2011, published 2014)

Experiments:
Assay type in all cases: biochemical
[1] = molecular target: PAK1 (Homo sapiens, UniProt Q13153); assay: In vitro PAK inhibition assay (SelectScreen, Ser/Thr 19 peptide)
Experimental: (§1) Compounds are screened in 1% DMSO (final) in the well. For 10 point titrations, 3-fold serial dilutions are conducted.
(§2) All Peptide/Kinase Mixtures are diluted to a 2× working concentration in the appropriate Kinase Buffer
The 2×PAK1/Ser/Thr 19 mixture is prepared in 50 mM HEPES pH 7.5, 0.01% BRIJ-35, 10 mM MgCl2, 1 mM EGTA.
(§3) This control yields 100% cleaved peptide in the Development Reaction.
(§4) The 100% Phosphorylation Control, which consists of a synthetically phosphorylated peptide of the same sequence as the peptide substrate, is designed to allow for the calculation of percent phosphorylation.
(§5) This control is designed to produce a 10-50%* phosphorylated peptide in the Kinase Reaction.
(§6) A known inhibitor control standard curve, 10 point titration, is run for each individual kinase on the same plate as the kinase to ensure the kinase is inhibited within an expected IC50 range previously determined.
(§7) Add the following solutions to a well in a 384-well plate: • 2.5 μL of 4× Test Compound OR (100 nL 100× Test Compound plus 2.4 μL kinase buffer) • 5 μL of 2× Peptide/Kinase (PAK) Mixture • 2.5 μL of 4×ATP Solution • 2. Shake the plate for 30-seconds • 3. Incubate the PAK Kinase Reaction at room temperature for 60-minutes • 4. Add 5 μL of Development Reagent Solution to each well • 5. Shake the plate for 30-seconds • 6. Incubate the Development Reaction for 60-minutes • 7. Determine the fluorescence using a fluorescence plate reader • 8. Analyze the fluorescence data
(§8) SelectScreen® Kinase Profiling Service uses XLfit from IDBS.
(§9) The representative IC50 value with a known inhibitor for each kinase was determined at the ATP bin nearest to the ATP Km app.

[2] = molecular target: PAK4 (Homo sapiens, UniProt O96013); assay: In vitro PAK inhibition assay (SelectScreen, Ser/Thr 20 peptide)
Experimental: as §1, §2
The 2×PAK4/Ser/Thr 20 mixture is prepared in 50 mM HEPES pH 7.5, 0.01% BRIJ-35, 10 mM MgCl2, 1 mM EGTA. The final 10 μL Kinase Reaction consists of 0.1-0.75 ng PAK4 and 2 μM Ser/Thr 20 in 50 mM HEPES pH 7.5, 0.01% BRIJ-35, 10 mM MgCl2, 1 mM EGTA. After the 1 hour Kinase Reaction incubation, 5 μL of a 1:256 dilution of Development Reagent A is added.
as §3, §4
The minimum Emission Ratio in a screen is established by the 0% Inhibition Control, which contains active kinase. This control is designed to produce a 10-50%* phosphorylated peptide in the Kinase Reaction.
as §6
as §7, with “Bar-coded Corning, low volume NBS, black 384-well plate (Corning Cat. #3676) • 1. Add the” for “Add the”
SelectScreen® Kinase Profiling Service uses XLfit from IDBS. The dose response curve is curve fit to model number 205 (sigmoidal dose-response model).
The table below provides specifications and data around each kinase. The representative IC50 value with a known inhibitor for each kinase was determined at the ATP bin nearest to the ATP Km app.

[3] = molecular target: PAK3 (Homo sapiens, UniProt O75914); assay: as above
Experimental: as §1, §2
The 2×PAK3/Ser/Thr 20 mixture is prepared in 50 mM HEPES pH 7.5, 0.01% BRIJ-35, 10 mM MgCl2, 1 mM EGTA.
as §3, §4, §5, §6, §7, §8, §9

[4] = molecular target: PAK2 (PAK65) (Homo sapiens, UniProt Q13177); assay: as above
Experimental: as §1, §2
The 2×PAK2 (PAK65)/Ser/Thr 20 mixture is prepared in 50 mM HEPES pH 7.5, 0.01% BRIJ-35, 10 mM MgCl2, 1 mM EGTA. The final 10 μL Kinase Reaction consists of 0.29-6 ng PAK2 (PAK65) and 2 μM Ser/Thr 20 in 50 mM HEPES pH 7.5, 0.01% BRIJ-35, 10 mM MgCl2, 1 mM EGTA.
as §3, §4, §5, §6, §7, §8, §9

PAK3, sequence (O75914 whole entry): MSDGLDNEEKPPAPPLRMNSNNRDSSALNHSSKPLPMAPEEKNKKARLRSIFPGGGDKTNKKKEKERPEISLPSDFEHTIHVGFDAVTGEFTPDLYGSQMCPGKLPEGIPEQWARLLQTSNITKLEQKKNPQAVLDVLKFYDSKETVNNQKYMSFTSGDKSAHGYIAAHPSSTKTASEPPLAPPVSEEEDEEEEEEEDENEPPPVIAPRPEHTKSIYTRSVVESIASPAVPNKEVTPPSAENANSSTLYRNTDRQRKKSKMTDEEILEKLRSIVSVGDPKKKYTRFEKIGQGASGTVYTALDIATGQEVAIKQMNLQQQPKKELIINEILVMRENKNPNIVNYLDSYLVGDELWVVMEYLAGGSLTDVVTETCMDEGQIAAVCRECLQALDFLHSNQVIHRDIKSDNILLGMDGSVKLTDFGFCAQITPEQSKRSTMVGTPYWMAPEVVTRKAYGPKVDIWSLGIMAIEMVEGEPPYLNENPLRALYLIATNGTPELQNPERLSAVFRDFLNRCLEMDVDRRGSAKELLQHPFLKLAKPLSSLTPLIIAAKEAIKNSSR
PAK1, sequence (Q13153 whole entry): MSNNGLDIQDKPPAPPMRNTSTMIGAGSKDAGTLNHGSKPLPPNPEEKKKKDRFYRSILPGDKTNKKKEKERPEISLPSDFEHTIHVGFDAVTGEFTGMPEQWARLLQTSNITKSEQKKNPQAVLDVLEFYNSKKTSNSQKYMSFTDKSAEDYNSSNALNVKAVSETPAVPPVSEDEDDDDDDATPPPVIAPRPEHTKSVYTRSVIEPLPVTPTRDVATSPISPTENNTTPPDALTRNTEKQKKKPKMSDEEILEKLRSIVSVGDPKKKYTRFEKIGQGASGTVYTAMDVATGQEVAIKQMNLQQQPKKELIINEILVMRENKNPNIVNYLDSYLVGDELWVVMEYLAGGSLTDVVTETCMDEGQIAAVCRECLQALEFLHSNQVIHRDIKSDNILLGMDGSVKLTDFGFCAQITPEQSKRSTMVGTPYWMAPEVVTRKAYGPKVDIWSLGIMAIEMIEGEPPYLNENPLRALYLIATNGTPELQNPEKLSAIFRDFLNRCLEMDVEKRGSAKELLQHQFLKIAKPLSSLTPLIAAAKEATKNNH
PAK4, sequence (O96013 whole entry): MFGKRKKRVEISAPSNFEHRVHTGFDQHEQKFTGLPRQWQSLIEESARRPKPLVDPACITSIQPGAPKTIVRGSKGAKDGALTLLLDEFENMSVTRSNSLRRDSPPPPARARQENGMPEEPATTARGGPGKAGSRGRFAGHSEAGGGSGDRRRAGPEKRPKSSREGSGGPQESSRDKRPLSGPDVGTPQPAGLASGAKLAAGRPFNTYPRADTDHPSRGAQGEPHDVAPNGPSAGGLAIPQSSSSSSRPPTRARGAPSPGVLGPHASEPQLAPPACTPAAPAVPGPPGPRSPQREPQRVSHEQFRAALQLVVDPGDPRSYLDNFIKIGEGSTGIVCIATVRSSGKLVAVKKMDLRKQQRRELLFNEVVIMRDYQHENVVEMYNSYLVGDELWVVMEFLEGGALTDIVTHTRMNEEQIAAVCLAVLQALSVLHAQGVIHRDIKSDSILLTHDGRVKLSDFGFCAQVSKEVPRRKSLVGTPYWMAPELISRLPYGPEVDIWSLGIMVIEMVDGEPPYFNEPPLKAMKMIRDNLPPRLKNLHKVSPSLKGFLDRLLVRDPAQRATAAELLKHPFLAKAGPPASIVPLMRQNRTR
PAK2 (PAK65), sequence (Q13177 whole entry): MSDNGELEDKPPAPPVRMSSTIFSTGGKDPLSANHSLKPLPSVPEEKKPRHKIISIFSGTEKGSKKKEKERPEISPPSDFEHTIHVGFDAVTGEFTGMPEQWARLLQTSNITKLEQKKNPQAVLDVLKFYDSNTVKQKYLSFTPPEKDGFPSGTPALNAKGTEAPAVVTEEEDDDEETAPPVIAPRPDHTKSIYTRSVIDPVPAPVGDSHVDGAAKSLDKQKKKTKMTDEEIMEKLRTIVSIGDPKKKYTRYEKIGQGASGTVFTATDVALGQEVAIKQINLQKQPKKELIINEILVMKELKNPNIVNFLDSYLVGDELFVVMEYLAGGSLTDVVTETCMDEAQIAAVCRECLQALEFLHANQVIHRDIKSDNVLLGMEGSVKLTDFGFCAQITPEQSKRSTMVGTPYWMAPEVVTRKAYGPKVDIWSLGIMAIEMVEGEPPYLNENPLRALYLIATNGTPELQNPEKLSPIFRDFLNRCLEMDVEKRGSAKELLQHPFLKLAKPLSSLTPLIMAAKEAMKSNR

| SMILES | IC50 [1] | IC50 [2] | IC50 [3] | IC50 [4] |
| --- | --- | --- | --- | --- |
| Cc1ccc(-c2cccnc2)cc1-c1cc2cnc(Nc3ccc(C4CCN(C)CC4)cc3)nc2n(C)c1=O | 0.05 to 0.5 µM | ≥ 5 µM | 0.05 to 0.5 µM | 0.5 to 5 µM |
| CCn1c(=O)c(-c2ccc(C3CC3)cc2Cl)cc2cnc(Nc3ccc(N4CCN(C)CC4)cc3)nc21 | 0.05 to 0.5 µM | ≥ 5 µM | 0.05 to 0.5 µM | 0.05 to 0.5 µM |
| Cc1cnc(-c2ccc(-c3cc4cnc(Nc5ccc(C6CCN(C)CC6)cc5)nc4n(C)c3=O)c(C)c2)s1 | < 0.05 µM | 0.5 to 5 µM | 0.05 to 0.5 µM | < 0.05 µM |
| CCn1c(=O)c(-c2ccc(-c3nccnc3C)cc2Cl)cc2cnc(Nc3ccccc3)nc21 | 0.05 to 0.5 µM | ≥ 5 µM | 0.05 to 0.5 µM | 0.05 to 0.5 µM |
| CCn1c(=O)c(-c2ccc(-c3noc(C)n3)cc2Cl)cc2cnc(Nc3ccc(C4CCNCC4)c(F)c3)nc21 | < 0.05 µM | 0.5 to 5 µM | < 0.05 µM | < 0.05 µM |
| CCn1c(=O)c(-c2ccc(-c3ccc(C)nc3)cc2Cl)cc2cnc(Nc3ccc(C4CCN(C)CC4)c(F)c3)nc21 | < 0.05 µM | ≥ 5 µM | 0.05 to 0.5 µM | < 0.05 µM |
| CCn1c(=O)c(-c2ccc(-c3noc(C)n3)cc2Cl)cc2cnc(Nc3ccc(N4CCN(C(C)C)CC4)cc3)nc21 | < 0.05 µM | 0.5 to 5 µM | < 0.05 µM | < 0.05 µM |
| CC(=O)N(C)c1cc(-c2cc3cnc(Nc4ccc(CCN(C)C)cc4)nc3n(C)c2=O)c(Cl)cc1-c1cccnc1 | 0.05 to 0.5 µM | ≥ 5 µM | 0.05 to 0.5 µM | 0.05 to 0.5 µM |
| Cc1nc(-c2ccc(Cl)c(-c3cc4cnc(Nc5ccc(C6CCN(C)CC6)cc5)nc4n(C)c3=O)c2)no1 | 0.5 to 5 µM | ≥ 5 µM | 0.05 to 0.5 µM | 0.5 to 5 µM |
| CCn1c(=O)c(-c2ccc(-c3noc(C)n3)cc2Cl)cc2cnc(Nc3ccc(CCN4CCCC4)cc3)nc21 | < 0.05 µM | 0.5 to 5 µM | < 0.05 µM | < 0.05 µM |
| Cc1ncccc1-c1ccc(-c2cc3cnc(Nc4ccc(C5CCNCC5)cc4)nc3n(C)c2=O)c(Cl)c1 | < 0.05 µM | ≥ 5 µM | 0.05 to 0.5 µM | 0.05 to 0.5 µM |
| Cc1ncccc1-c1ccc(-c2cc3cnc(Nc4ccc(CCN(C)C)cc4)nc3n(C)c2=O)c(Cl)c1 | < 0.05 µM | ≥ 5 µM | 0.05 to 0.5 µM | 0.05 to 0.5 µM |
| CCn1c(=O)c(-c2ccc(-c3noc(C)n3)cc2Cl)cc2cnc(Nc3ccc(C4CCN(C)CC4)c(F)c3)nc21 | < 0.05 µM | 0.5 to 5 µM | < 0.05 µM | < 0.05 µM |
| CN1CCC(c2ccc(Nc3ncc4cc(-c5ccc(-c6cccnc6F)cc5Cl)c(=O)n(C)c4n3)cc2)CC1 | < 0.05 µM | ≥ 5 µM | < 0.05 µM | < 0.05 µM |
| CCn1c(=O)c(-c2nc(C3CCN(C)CC3)sc2C)cc2cnc(Nc3ccc(N4CCN(C)CC4)cc3)nc21 | > 5 µM | ≥ 5 µM | > 5 µM | > 5 µM |
| CCn1c(=O)c(-c2ccc(-c3ncc(C)s3)cc2C)cc2cnc(Nc3ccc(C4CCN(C)CC4)cc3)nc21 | < 0.05 µM | 0.5 to 5 µM | 0.05 to 0.5 µM | < 0.05 µM |
| CCN1CCC(c2ccc(Nc3ncc4cc(-c5ccc(-c6cnc(C)s6)cc5Cl)c(=O)n(CC)c4n3)cc2F)CC1 | < 0.05 µM | 0.5 to 5 µM | < 0.05 µM | < 0.05 µM |
| CCn1c(=O)c(-c2ccc(-c3ccnc(C)c3)cc2Cl)cc2cnc(Nc3ccc(C4CCNCC4)c(F)c3)nc21 | 0.05 to 0.5 µM | – | – | 0.05 to 0.5 µM |
| CCn1c(=O)c(-c2ccc(-c3cnc(C)s3)cc2Cl)cc2cnc(Nc3ccc(C4CCNCC4)cc3)nc21 | – | – | 0.05 to 0.5 µM | – |
| CCn1c(=O)c(-c2ccc(-c3cccnc3C)cc2Cl)cc2cnc(Nc3ccc(C4CCNCC4)cc3)nc21 | – | – | 0.05 to 0.5 µM | – |
| CCn1c(=O)c(-c2ccc(-c3noc(C)n3)cc2Cl)cc2cnc(Nc3ccc(C4CCNCC4)cc3)nc21 | – | – | < 0.05 µM | – |
| CCn1c(=O)c(-c2ccc(-c3cccnc3F)cc2Cl)cc2cnc(Nc3ccc(C4CCNCC4)cc3)nc21 | – | 0.5 to 5 µM | – | – |
